These compounds were tested against human P2X7 receptor (Homo sapiens, UniProt Q99572, R270H/Y155H) (assay: Evaluation of human P2X7 receptor inhibitory activity (Yo-Pro uptake, BzATP stimulation, FLIPR TETRA)). Conditions: 1321N1 cells stably expressing human P2X7 receptor; BzATP stimulation, Yo-Pro uptake; read-out: IC50 (antagonistic activity for the human P2X7 receptor).
Format: cell-based
Summary of the method: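 1321N1 cells stably expressing human P2X7 (T606C/G952A SNP variant), in HBSS buffer pH 7.4-7.5 with Yo-Pro, stimulated with BzATP; compound added 8 min after agonist. Fluorescence followed for 20 min on FLIPR; max-minus-min change gave % inhibition, IC50 by logistic fit.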

| Structure (SMILES) | IC50 [nM] |
| --- | --- |
| COc1cn(Cc2cc(F)cc(F)c2)c(Nc2cccc3c(=O)[nH]ccc23)nc1=O [Compound I-0652] | 34 |
| COc1cn(Cc2ccc(F)c(Cl)c2)c(Nc2ccc3oc(C)cc3c2C)nc1=O [Compound I-0825] | 9 |
| COc1cn(Cc2cccc(C(F)(F)F)c2)c(Nc2cccc(Cl)c2C)nc1=O [Compound I-0295] | 170 |
| COc1cn(Cc2ccc(C(F)(F)F)cc2)c(Nc2cccc(Cl)c2C)nc1=O [Compound I-0297] | 250 |
| COc1cn(Cc2cc(F)c(F)c(F)c2)c(Nc2cc3sc(C)nc3cc2C)nc1=O [Compound I-0940] | 240 |
| CCOC(=O)c1cn(Cc2ccccc2)c(Nc2cc(C)c(C)cc2C)nc1=O [Compound I-0196] | 13 |
| COc1cn(Cc2cc(F)c(F)c(F)c2)c(Nc2cc3scnc3cc2C)nc1=O [Compound I-0935] | 6 |

Same assay, conditions: 1321N1 cells stably expressing human P2X7 receptor; BzATP stimulation, Yo-Pro uptake; read-out: IC50 (antagonistic activity for the human P2X7 receptor), class symbol

| Structure (SMILES) | IC50 [nM] |
| --- | --- |
| Cc1c(Cl)cccc1Nc1nc(=O)c(C#N)cn1Cc1ccc(F)cc1 [Compound I-0056] | 10 to 100 |
| COc1cn(Cc2ccc(F)cc2)c(Nc2cc(C)c(F)cc2C)nc1=O [Compound I-0443] | < 10 |
| COc1cn(Cc2cccc(Cl)c2)c(Nc2cc(C)c(F)cc2C)nc1=O [Compound I-0506] | < 10 |
| COc1cn(Cc2ccccc2)c(Nc2cc(Cl)ccc2C)nc1=O [Compound I-0092] | 100 to 500 |
| COc1cn(Cc2ccccc2)c(Nc2cc(C)cc3[nH]ccc23)nc1=O [Compound I-0390] | 10 to 100 |
| Cc1c(Cl)cccc1Nc1nc(=O)c(CC(=O)N2CCOCC2)cn1Cc1ccccc1 [Compound I-0339] | 100 to 500 |
| CCc1ccccc1Nc1nc(=O)c(OC)cn1Cc1cc(F)cc(F)c1 [Compound I-0327] | 10 to 100 |
| COc1cn(Cc2ccc(F)c(Cl)c2)c(Nc2cc(CN3CCCC3)ccc2C)nc1=O [Compound I-0524] | 100 to 500 |
| COc1cc(C)cc(Nc2nc(=O)c(OC)cn2Cc2ccc(F)c(Cl)c2)c1C [Compound I-0477] | < 10 |
| COc1cn(Cc2ccc(F)c(Cl)c2)c(Nc2cccc(N(C)C)c2C)nc1=O [Compound I-0402] | < 10 |
| COc1cn(Cc2cc(F)cc(F)c2)c(Nc2cc(-c3ncco3)ccc2C)nc1=O [Compound I-0554] | 10 to 100 |
| COc1cn(Cc2ccc(F)c(Cl)c2)c(Nc2cccc3c(=O)[nH]ccc23)nc1=O [Compound I-0398] | 10 to 100 |
| CCc1ccc(OC)cc1Nc1nc(=O)c(OC)cn1Cc1cccc(Cl)c1 [Compound I-0254] | 10 to 100 |
| COc1cn(Cc2ccc(F)c(Cl)c2)c(Nc2cc(N3CCCC3=O)ccc2C)nc1=O [Compound I-0399] | < 10 |
| Cc1c(Cl)cccc1Nc1nc(=O)c(-c2ccccc2)cn1Cc1ccccc1 [Compound I-0028] | 500 to 1000 |
| COc1cn(Cc2cccc(Cl)c2)c(Nc2cc(C)ccc2C)nc1=O [Compound I-0333] | 10 to 100 |
| COc1cc(Nc2nc(=O)c(OC)cn2Cc2cc(F)cc(Cl)c2)c(C)cc1Cl [Compound I-0537] | < 10 |
| COc1cn(Cc2cccc(Cl)c2)c(Nc2cccc(OC(F)F)c2C)nc1=O [Compound I-0479] | 10 to 100 |
| COc1cn(Cc2cccc(F)c2)c(Nc2cc3sc(C)nc3cc2C)nc1=O [Compound I-0559] | 10 to 100 |
| COc1cn(Cc2ccccc2)c(Nc2ccc(C)cc2C)nc1=O [Compound I-0106] | 10 to 100 |
| COc1cn(Cc2ccccc2)c(Nc2cc(C(C)(C)C)ccc2C)nc1=O [Compound I-0500] | 10 to 100 |
| COc1cn(Cc2cc(F)c(F)c(F)c2)c(Nc2cc(C)c(C)cc2C)nc1=O [Compound I-0574] | < 10 |
| CCc1ccccc1Nc1nc(=O)c(OC)cn1Cc1cc(F)c(F)c(F)c1 [Compound I-0568] | 10 to 100 |
| COc1cn(Cc2ccc(F)cc2)c(Nc2cc(C)c(OC(F)F)cc2C)nc1=O [Compound I-0301] | < 10 |
| CCNC(=O)c1cn(Cc2ccccc2)c(Nc2cccc(Cl)c2C)nc1=O [Compound I-0078] | 100 to 500 |
| COCc1cccc(Nc2nc(=O)c(OC)cn2Cc2ccccc2)c1C [Compound I-0352] | 100 to 500 |
| COc1cn(Cc2ccc(F)cc2)c(Nc2cc(C)c(Cl)cc2C)nc1=O [Compound I-0169] | < 10 |
| COc1cn(Cc2ccccc2)c(N[C@@H]2CCc3ccccc32)nc1=O [Compound I-0201] | 500 to 1000 |
| COc1cn(Cc2ccc(F)c(Cl)c2)c(Nc2cc(OCC(F)(F)F)ccc2C)nc1=O [Compound I-0497] | 10 to 100 |

Same assay, conditions: antagonistic activity for the human P2X7 receptor; read-out: IC50

| Structure (SMILES) | IC50 [nM] |
| --- | --- |
| Cc1c(CO)cccc1Nc1nc(=O)c(F)cn1Cc1cc(F)c(F)c(F)c1 [Compound I-1177] | < 10 |
| COc1cn(Cc2cc(F)c(F)c(F)c2)c(Nc2cc(-c3cscn3)ccc2C)nc1=O [Compound I-0802] | < 10 |
| COc1ccc(Nc2nc(=O)cnn2Cc2ccc(F)c(F)c2)c(C)c1 [Compound I-1272] | < 10 |
| Cc1nc2cc(Cl)c(Nc3nc(=O)c(F)cn3Cc3cc(F)c(F)c(F)c3)cc2s1 [Compound I-1182] | < 10 |
| CCOc1ccc(Nc2nc(=O)c(F)cn2Cc2ccc(F)c(Cl)c2)c(C)c1 [Compound I-1035] | 10 to 100 |
| COc1cn(Cc2cc(F)cc(F)c2)c(Nc2cccc3occc23)nc1=O [Compound I-0640] | 10 to 100 |
| COc1cn(Cc2cc(F)cc(F)c2)c(Nc2cc(S(C)(=O)=O)cc(C)c2C)nc1=O [Compound I-0758] | 10 to 100 |
| Cc1ccc(-c2nnco2)cc1Nc1nc(=O)c(Cl)cn1Cc1cc(F)c(F)c(F)c1 [Compound I-1157] | < 10 |
| CCOc1cc(Nc2nc(=O)c(F)cn2Cc2cc(F)c(F)c(F)c2)c(C)cc1F [Compound I-1030] | < 10 |
| COc1cn(Cc2ccc(F)c(Cl)c2)c(Nc2ccc3c(c2C)OC(F)(F)C(F)(F)O3)nc1=O [Compound I-0824] | 10 to 100 |
| COc1cn(Cc2ccc(F)c(Cl)c2)c(Nc2cc(-c3cccn(C)c3=O)ccc2C)nc1=O [Compound I-0588] | < 10 |
| Cc1ccc(N2CCCC2=O)cc1Nc1nc(=O)c(Cl)cn1Cc1cc(F)cc(F)c1 [Compound I-0701] | < 10 |
| COc1cn(Cc2ccc(F)c(Cl)c2)c(Nc2cccc3c(=O)n(C)ccc23)nc1=O [Compound I-0902] | 10 to 100 |
| O=c1nc(Nc2cccc3[nH]ccc23)n(Cc2cc(F)c(F)c(F)c2)cc1F [Compound I-1023] | < 10 |
| Cc1ccccc1Nc1nc(=O)c(C)cn1Cc1cc(F)c(F)c(F)c1 [Compound I-1098] | 10 to 100 |
| COc1ccc(Nc2nc(=O)cnn2Cc2cccc(F)c2)c(C)c1 [Compound I-1274] | < 10 |
| COc1cn(Cc2cc(F)c(F)c(F)c2)c(Nc2cc(N3CCOCC3)ccc2C)nc1=O [Compound I-0931] | 10 to 100 |
| O=c1nc(Nc2cccc3cnccc23)n(Cc2cc(F)c(F)c(F)c2)cc1F [Compound I-1096] | 10 to 100 |
| COc1cn(Cc2cc(F)cc(F)c2)c(Nc2cc(-c3cnccn3)ccc2C)nc1=O [Compound I-0684] | 10 to 100 |
| Cc1ccc(OCCO)cc1Nc1nc(=O)c(F)cn1Cc1cc(F)c(F)c(F)c1 [Compound I-1205] | < 10 |
| CCc1cc2c(cc1Nc1nc(=O)c(OC)cn1Cc1ccc(F)c(Cl)c1)OCCO2 [Compound I-0798] | 10 to 100 |

| Structure (SMILES) | IC50 [nM] |
| --- | --- |
| Cc1cc(OC(F)F)ccc1Nc1nc(=O)c(F)cn1Cc1ccc(F)c(Cl)c1 [Compound I-1063] | 10 to 100 |
| COc1cc(F)c(Nc2nc(=O)c(C)nn2Cc2cc(F)c(F)c(F)c2)cc1OC [Compound I-1257] | 10 to 100 |
| COc1cn(Cc2cc(F)cc(F)c2)c(Nc2cc(OC(F)(F)F)ccc2C)nc1=O [Compound I-0695] | 10 to 100 |
| COc1cn(Cc2ccc(F)c(Cl)c2)c(Nc2cc(C(F)(F)F)ccc2C)cc1=O [Compound I-0956] | 100 to 500 |
| O=c1nc(Nc2cccc3c(O)cccc23)n(Cc2ccc(F)c(F)c2)cc1F [Compound I-1115] | < 10 |
| Cc1c(F)cccc1Nc1nc(=O)c(F)cn1Cc1ccc(F)c(Cl)c1 [Compound I-1213] | < 10 |
| CCc1cc(F)c(OC)cc1Nc1nc(=O)c(OC)cn1Cc1cc(F)cc(Cl)c1 [Compound I-0816] | < 10 |
| COc1cc(C)c(Nc2nc(=O)c(OC)cn2Cc2ccc(F)cc2)cc1Cl [Compound I-0615] | < 10 |
| COc1cc(C)c(Nc2nc(=O)c(C(N)=O)cn2Cc2ccc(F)c(F)c2)cc1C [Compound I-1158] | < 10 |
| COc1cn(Cc2ccc(F)c(F)c2)c(Nc2cccc3c(=O)[nH]ccc23)nc1=O [Compound I-0689] | 10 to 100 |
| CCOc1cn(Cc2ccc(F)c(Cl)c2)c(Nc2cc(C)cc(OC)c2C)nc1=O [Compound I-0716] | < 10 |
| COc1cn(Cc2cc(F)cc(Cl)c2)c(Nc2cc(-c3ccc(C)o3)ccc2C)nc1=O [Compound I-0768] | 10 to 100 |
| CCOc1cc(C)c(Nc2nc(=O)c(OC)cn2Cc2cc(F)c(F)c(F)c2)cc1F [Compound I-0868] | 10 to 100 |
| COc1ccc(Nc2nc(=O)c(C)nn2Cc2cc(F)c(F)c(F)c2)c(C)n1 [Compound I-1259] | 10 to 100 |
| CCc1cc(Br)ccc1Nc1nc(=O)c(OC)cn1Cc1ccc(F)c(Cl)c1 [Compound I-0631] | 10 to 100 |
| COc1cc(C)c(Nc2nc(=O)c(OC)cn2Cc2ccccc2)cc1F [Compound I-0718] | 10 to 100 |
| COc1cn(Cc2ccc(F)c(Cl)c2)c(Nc2cc3c(cc2C)OCC3)nc1=O [Compound I-0864] | < 10 |
| COc1cn(Cc2cc(F)c(F)c(F)c2)c(Nc2cccc3[nH]c(=O)ccc23)nc1=O [Compound I-0602] | 100 to 500 |
| COc1cn(Cc2cccc(F)c2)c(Nc2cc(C)ccc2C)nc1=O [Compound I-0644] | 10 to 100 |
| COc1ccc(Nc2nc(=O)c(Cl)cn2Cc2ccc(F)c(F)c2)c(C)c1 [Compound I-0844] | < 10 |
| COc1cn(Cc2ccccc2)c(Nc2cc(Cl)cc3[nH]ccc23)nc1=O [Compound I-0818] | 10 to 100 |
